Assay results as given in patent US9803220B2, “Production of alkenes from 3-hydroxy-1-carboxylic acids via 3-sulfonyloxy-1-carboxylic acids” (Scientist of Fortune S.A., priority 2012, dated 2017).

Legend:
[1] = Thermal conversion of 3-sulfonyloxybutyrate to propylene, headspace GC-FID; assay type: physicochemical; conditions: 50 mM substrate, 50 mM Tris-HCl pH 7.5, 0 to 90 h
Method: The thermal conversion assays containing, in a total volume of 0.5 mL, 50 mM 3-sulfonyloxybutyrate and 50 mM Tris-HCl pH 7.5, were incubated in 2 ml sealed glass vials (Interchim) at 37° C. and 65° C. with shaking. Propylene production at different incubation times (from 0 to 90 h) was analyzed as follows. One ml of the gaseous phase was collected and injected into a gas chromatograph Varian 430-GC equipped with FID detector. Nitrogene was used as carrier gas with a flow rate of 1.5 ml/min. Volatile compounds were separated on RT-Alumina Bond/Na2SO4 column (Restek) using an isothermal mode at 130° C. Gaseous product of thermal decomposition of disodium (R,S)-3-sulfonyloxybutyrate was identified by comparison with propylene standard (Sigma, Aldrich). Under these GC conditions, the retention time for propylene was 3.2 min. […] (FIGS. 6 and 7).

[2] = system: sulfotransferase CurM (PKS ST); assay: Sulfotransferase activity assay, sulfurylation of 3-hydroxybutyrate with PAPS, MS detection; assay type: biochemical, Moorea producens (formerly Lyngbya majuscala) 19L; conditions: 5 mM (R,S)-3-hydroxybutyrate, 5 mM PAPS, 5 mg/ml enzyme, 1.5 hours at 37° C., pH 7.5
Source text: Sequence of sulfotransferase domain of polyketide synthase CurM (PKS ST) inferred from the genome of Moorea producens (formerly Lyngbya majuscala) 19L was generated by oligonucleotide concatenation to fit the codon usage of E. coli. A stretch of 6 histidine codons was inserted after the methionine initiation codon to provide an affinity tag for purification. The gene thus synthesized was cloned in a pET25b(+) expression vector (the vectors were constructed by GENEART AG). After transformation of the E. coli strain BL21 (DE3), the protein was produced according to the procedure described in Example 1 and sulfotransferase activity was assayed under the following conditions
5 mM (R,S)-3-hydroxybutyrate
5 mg/ml purified sulfotransferase (ST) CurM.
Control reaction was performed using the same reaction mixture without addition of the enzyme. The assays were incubated for 1.5 hours at 37° C. An aliquot of 200 μl of each assay was then removed, filtered through a 0.45 μm filter and the filtrated solution was transferred into a clean vial. MS analyses were performed in negative electrospray mode by direct injection of sample using PE SCIEX API 2000 quadrupole instrument. The presence of 3-sulfonyloxybutyrate was evaluated. […] The peak at m/z=182.8 was assigned to mono-deprotonated form of 3-sulfonyloxybutyrate, [M-H]^−. […]

Structure (SMILES)	propylene production by thermal conversion ([1]; 37° C.)	propylene production by thermal conversion ([1]; 37° C., listed as sulfonylbutyrate)	propylene production by thermal conversion ([1]; 65° C.)	transfer of the sulfate group from PAPS onto hydroxyl group (formation of 3-sulfonyloxybutyrate) [2]
CC(CC(=O)[O-])OS(=O)(=O)[O-].[Na+].[Na+] (racemic) [disodium (R,S)-3-sulfonyloxybutyrate, Disodium (R,S)-3-sulfonyloxybutyrate]	Significant production of propylene	already occurs	Significant production of propylene	
CC(O)CC(=O)O (stereo not shown) [3-hydroxybutyrate]				catalyzes transfer of the sulfate group
